In patent US11318115B2, “Oral pharmaceutical composition of Tecovirimat and preparation method thereof” (priority 2016, dated 2022):
≈ marks a conversion by molar mass, not a printed value. Read-outs that look alike come from different tables or passages of the source.

How the values were obtained:
physchem = format: physicochemical; settings: aqueous with cosolvent or surfactant or cyclodextrin, thermodynamic from solid
Method: Excess amounts of Tecovirimat (bulk drug powder) was added to an aqueous solution comprising meglumine and cyclodextrin at different ratios relative to each other to form a suspension. The suspension was placed in a constant-temperature incubation shaker, and was shaken at a temperature of 25±1° C., 37±1° C. and 60±1° C. for 72 h. After reaching equilibrium, the suspension was filtered through a 0.45 μm hydrophilic filter membrane to obtain a filtrate. After the filtrate was properly diluted with an acetonitrile-water (50:50, v/v) solution, the absorbance was measured at 224 nm, and the solubility of Tecovirimat was calculated. The corresponding solubility curve was plotted by using the solubility of the drug as the ordinate, and using the concentration of the cyclodextrin and/or meglumine as the abscissa.

[1] = In vitro dissolution in water (ChP 2015, 0931 Method II, 100 rpm); format: physicochemical; settings: within 60 min, 1000 ml water, FIG. 2
Method: Experimental method: 1000 ml water was used as dissolution medium, and according to the Dissolution Test (Pharmacopoeia of the People's Republic of China (2015 Edition), General Notices, 0931 Method II), the operation was carried out at a rotation rate of 100 rpm, and a solution (5 ml) was taken at 5, 10, 15, 30, 45, and 60 min, respectively, and was filtrated through a 0.45 μm microporous membrane, to obtain a test solution; and Tecovirimat (bulk drug powder, 5 mg) as a reference was accurately weighed, and placed in a 100 ml volumetric flask, and the medium for dissolution was added to a final volume of 100 ml, thereby obtaining a reference solution. By high performance liquid chromatography, the peak area of the test solution and the reference solution were measured at 224 nm. The dissolution amounts at different time points was calculated by an external standard method, and the cumulative dissolution curves were plotted.

[2] = cited from earlier work
[3] = cited from earlier work; remark: listed apart in the source

Compound `O=C(NN1C(=O)[C@@H]2[C@@H]3C=C[C@@H]([C@H]4C[C@@H]34)[C@@H]2C1=O)c1ccc(C(F)(F)F)cc1` [Tecovirimat, 4-trifluoromethyl-N-(3,3a, 4,4a, 5,5a, 6,6a-octahydro-1,3-dioxo-4,6-ethenocycloprop [f]isoindol-2 (1H)-yl)-benzamide] has a solubility (physchem; 25 °C, cyclodextrin 20% (w/v) to 40% (w/v) alone, 25° C., FIG. 1(A), read-out: solubility of Tecovirimat in water) of 5 to 15 mg/mL (≈ 13.3 to 39.9 mM), a solubility (physchem; 25 °C, meglumine 2% (w/v) to 10% (w/v) alone, 25° C., FIG. 1(B), read-out: solubility of Tecovirimat in water) of 2 to 7 mg/mL (≈ 5.31 to 18.6 mM) and a solubility (physchem; 25 °C, meglumine 5% (w/v) plus cyclodextrin 20% (w/v) to 40% (w/v), 25° C., FIG. 1(C), read-out: solubility of Tecovirimat in water) of 20 to 80 mg/mL. It also gave a solubility (physchem; 37 °C, cyclodextrin 20% (w/v) to 40% (w/v) alone, 37° C., FIG. 1(A), read-out: solubility of Tecovirimat in water) of 5 to 18 mg/mL (≈ 13.3 to 47.8 mM), a solubility (physchem; 37 °C, meglumine 2% (w/v) to 10% (w/v) alone, 37° C., FIG. 1(B), read-out: solubility of Tecovirimat in water) of 2 to 9 mg/mL (≈ 5.31 to 23.9 mM) and a solubility (physchem; 37 °C, meglumine 5% (w/v) plus cyclodextrin 20% (w/v) to 40% (w/v), 37° C., FIG. 1(C), read-out: solubility of Tecovirimat in water) of 30 to 100 mg/mL. It also gave a solubility (physchem; 60 °C, cyclodextrin 20% (w/v) to 40% (w/v) alone, 60° C., FIG. 1(A), read-out: solubility of Tecovirimat in water) of 5 to 20 mg/mL (≈ 13.3 to 53.1 mM), a solubility (physchem; 60 °C, meglumine 2% (w/v) to 10% (w/v) alone, 60° C., FIG. 1(B), read-out: solubility of Tecovirimat in water) of 2 to 10 mg/mL (≈ 5.31 to 26.6 mM) and a solubility (physchem; 60 °C, meglumine 5% (w/v) plus cyclodextrin 20% (w/v) to 40% (w/v), 60° C., FIG. 1(C), read-out: solubility of Tecovirimat in water) of 50 to 150 mg/mL. For the same compound, the solubility (physchem; ternary solubilizing composition: Tecovirimat, cyclodextrin, additive (e.g. meglumine), read-out: maximal solubility) was at most 152 mg/mL, the dissolution [1] was under 5% and the water solubility [2] was “less than 0.003 mg/ml”. For the same compound, the solubility ([3]; 20%-40% (w/v) hydroxypropyl-β-cyclodextrin (HP-β-CD), 37° C.) was 1.5 to 11 mg/mL, the maximal solubility ([3]; 40% (w/v) HP-β-CD, 70° C.) was 21.23 mg/mL and the “effect of cosolvent (PEG400) or nonionic surfactant (Tween 80) on solubility in HP-β-CD” value ([3]; HP-β-CD plus PEG400 or Tween 80) was “cannot further improve the solubility”.
